# Test results published in patent US20140196172A1, “Organelle Targeting Nanocarriers” (Her Majesty the Queen in Right of Canada, as Repre sented …, priority 2011, published 2014).
# What was measured:
# [1] = test system: proplastids of triticale microspores; experiment: qRT-PCR of gfp mRNA, microspores transfected with pWCaadA16GFP; assay type: cell-based; settings: gfp reporter construct
# Excerpt: (§1) FIG. 18 is a plot showing the level of expression (fold increase, average of 4 replicates) of GFP in triticale microspores transfected with the pWCaadA16GFP plasmid in the presence of cTP1 (SEQ ID NO: 6), cTP2 (SEQ ID NO: 7), cTP3 (SEQ ID NO: 8), cTP4 (SEQ ID NO: 9) or cTP5 (SEQ ID NO: 10) compared to the level of expression (fold increase) of the internal control elongation factor 1a (EF1a), as measured by quantitative real time PCR of mRNA levels;
# (§2) Wheat chloroplast aadA16GFP reporter plasmid (pWCaadA16GFP, FIG. 12) is a 4212 base pair wheat specific plastid transformation vector, which targets insertions into the tml-tmA inverted repeat regions of the Triticum aestivum plastid genome at nucleotides 92850-93727 and 93794-94671 (GenBank accession No. AB042240.3). A multiple cloning site is introduced following the tml target insertion sequence. The selection marker gene is an organelle codon specific aad-gfp fusion gene, which facilitates a dual selection method of spectinomycin resistance through an aadA derivative and visual detection by GFP fluorescence (GenBank accession No. ABX39486; Khan and Maliga, Nat. Biotechnol. (1999 September) 17(9): 910-5). The selection marker gene is driven by the Triticum aestivum plastid genome promoter (psbA) at nucleotides 1282-1153 (GenBank accession No. AB042240.3). The aad-gfp fusion gene is terminated with the rice psbA terminator sequence derived from chloroplast transformation vector pVSR326 nucleotides 4014-4387 (GenBank accession No. AF527485.1).
# The dsDNA construct (pWMaadA16GFP for mitochondrial expression or pWCaadA16GFP for expression in chloroplasts) is combined with the mTP (for mitochondrial expression) or cTP (for expression in chloroplasts) in the amounts used in the protoplast transformation experiments described above in a final volume of 100 μl of NBP-99 solution. The mixture is incubated for 10 minutes at room temperature, then incubated with isolated triticale microspores (500 μl, 10^6 microspores/ml, prepared as described in Example 2) for 1 h in the dark at room temperature. NBP-99 solution (500 μl) is added and the mixture is incubated in the dark for 24 h. The cells are imaged using confocal microscopy, as described in Example 2, using MitoTracker® Orange staining to visualize mitochondria.
# Microspores are disrupted using a cleaned ceramic bead and aggressive shaking as the tissue is thawing. RLT buffer/B-Me (450 μl) is added and the sample is vortexed. The sample is heated at 55° C. for 1 minute and vortexed again. RNA is extracted using an RNeasy™ Plant Mini Kit (Qiagen), incorporating on-column DNase I digestion into the protocol. The final elution volume is 40 μl. RNA is assessed using both agarose gel […] (to ensure RNA is intact) and spectrophotometry (for quantification).
# (§3) cDNA is generated using a First Strand Synthesis kit (Invitrogen). RNA (1 μg) is added to each sample and the manufacturer's protocol for synthesis followed, with the exception that the volume of the reaction mixture is increased from 20 μl to 30 μl. A negRT sample containing all reagents but no RNA is included in the cDNA synthesis as a negative control.
# Standard curves are generated for both elongation factor 1a (EF1a) (internal control) and green fluorescent protein (GFP) (test) genes. […]
# (§4) Real time PCR reactions are performed using QuantiTect™ SYBR™ Green PCR Master Mix (Qiagen) in a 20 μl reaction volume. […]
# [2] = test system: chloroplasts of triticale protoplasts; experiment: qRT-PCR of gfp mRNA, protoplasts transfected with pWCaadA16GFP; assay type: cell-based; settings: gfp reporter construct
# Excerpt: as §1, with “20” for “18”, “protoplasts” for “microspores”, “levels.” for “levels;”
# as §2
# The dsDNA construct (pWMaadA16GFP for mitochondrial expression or pWCaadA16GFP for expression in chloroplasts) is combined with the mTP (for mitochondrial expression) or cTP (for expression in chloroplasts) in a final volume of 100 μl of CPW solution. For experiments using mTP1 (SEQ ID NO: 1), mTP2 (SEQ ID NO: 2), mTP3 (SEQ ID NO: 3), or mTP5 (SEQ ID NO: 5), peptides (scaled up from 100 ng, at four times the concentration needed to cause a DNA shift in the gel mobility shift assay (Table 7)) are combined with the pWMaadA16GFP construct (5 μg). For experiments using the remaining oTPs, peptides (30 μg) are combined with the appropriate dsDNA construct (1.5 μg). The mixture is incubated for 10 minutes at room temperature, then incubated with isolated triticale mesophyll protoplasts (500 μl, 10^6 protoplasts/ml, prepared as described in Example 2) for 1 h in the dark at room temperature. CPW solution (500 μl) is added and the mixture is incubated in the dark for 24 h. The cells are imaged using confocal microscopy, as described in Example 2, using MitoTracker® Orange staining to visualize mitochondria and chlorophyll autofluorescence to visualize chloroplasts.
# as §3
# Standard curves are generated for both elongation factor 1a (EF1a) (internal control) and green fluorescent protein (GFP) (test) genes. The EF1a curve is generated by pooling 6 μl of each cDNA sample (excluding the negRT control), then carrying out a serial dilution of 0.5 for 5 more dilutions. […]
# as §4
sequence,measurement,setting,value
MKNPPSSFASGFGIR (listed as Oryza sativa) [cTP3],GFP expression by proplastids confirmed by qRT-PCR,[1],GFP is expressed
same,GFP expression by chloroplasts confirmed by qRT-PCR,[2],GFP is expressed
